Data from patent US20100260674A1, “QUINAZOLINE DERIVATIVES AND METHODS OF TREATMENT” (Concert Pharmaceuticals, Inc., priority 2006, published 2010).
Where a name gives a salt, the structure may show the parent alone.

Assay: Metabolic stability in pooled human liver microsomes
Settings: for half-life at 1 μM: human, microsomes, pH 7.4
Description: The metabolic stability of compounds of the invention was tested using pooled liver microsomal incubations. Full scan LC-MS analysis was then performed to detect major metabolites. Samples of the test compounds, exposed to pooled human liver microsomes, were analyzed using HPLC-MS (or MS/MS) detection. For determining metabolic stability, multiple reaction monitoring (MRM) was used to measure the disappearance of the test compounds. Q1 full scans were used to detect the major metabolites.
Experimental Procedures. Human liver microsomes (“HLM”; 20 mg/mL) are obtained from Xenotech, LLC (Lenexa, Kans.). β-nicotinamide adenine dinucleotide phosphate, reduced form (NADPH), magnesium chloride (MgCl2), and dimethyl sulfoxide (DMSO) are purchased from Sigma-Aldrich.
Stock solutions of test compounds (7.5 mM) were prepared in DMSO. […] The 20 mg/mL human liver microsomes were diluted to 0.625 mg/mL in 0.1 M potassium phosphate buffer, pH 7.4, containing 3 mM MgCl2. The diluted microsomes (375 μL) were added to wells of a 96-well deep-well polypropylene plate in triplicate. […] Reactions were initiated by addition of 125 μL of pre-warmed NADPH solution (8 mM NADPH in 0.1M potassium phosphate buffer, pH 7.4, containing 3 mM MgCl2). […] The reaction mixtures were incubated at 37° C., and 50 μL aliquots were removed at 0, 5, 10, 20, and 30 minutes and added to shallow-well 96-well plates which contained 50 μL of ice-cold ACN with internal standard to stop the reactions. The plates were stored at 4° C. for 20 minutes after which 100 μL of water was added to the wells of the plate before centrifugation to pellet precipitated proteins. Supernatants were transferred to another 96-well plate and analyzed for amounts of parent remaining by LC-MS/MS using an Applied Bio-systems API 4000 mass spectrometer.
The in vitro t1/2s for test compounds were calculated from the slopes of the linear regression of % parent remaining (ln) vs incubation time relationship. in vitro t1/2=0.693/k, where k=−[slope of linear regression of % parent remaining(ln) vs incubation time]. Data analysis was performed using Microsoft Excel Software.

SMILES	half-life at 1 μM [min]	longer t1/2 compared to erlotinib (0.5 mg/mL HLM) [%]
[2H]C#Cc1cccc(Nc2ncnc3cc(OCCOC)c(OCCOC)cc23)c1 [Compound 110, N-(3-(Ethynyl-d1)phenyl)-6,7-bis(2-methoxyethoxy) quinazolin-4-amine hydrochloride]	42.7	–
[2H]C([2H])(COc1cc2ncnc(Nc3cccc(C#C)c3)c2cc1OCC([2H])([2H])OC)OC [Compound 106, N-(3-ethynylphenyl)-6,7-bis(2-methoxyethoxy)quinazolin-4-amine]	43.8	–
C#Cc1cccc(Nc2ncnc3cc(OCCOC)c(OCCOC)cc23)c1 [erlotinib, N-(3-ethynylphenyl)-6,7-bis(2-methoxyethoxy)quinazolin-4-amine, reference compound]	57.8	–
[2H]C([2H])([2H])OCCOc1cc2ncnc(Nc3cccc(C#C)c3)c2cc1OCCOC([2H])([2H])[2H] [Compound 105, N-(3-Ethynylphenyl)-6,7-bis(2-(methoxy-d3)ethoxy)quinazolin-4-amine hydrochloride]	62.3	–
[2H]C([2H])([2H])OC([2H])([2H])COc1cc2ncnc(Nc3cccc(C#C)c3)c2cc1OCC([2H])([2H])OC([2H])([2H])[2H] [Compound 109, N-(3-(Ethynyl-d1)phenyl)-6,7-bis(2-(methoxy-d3)-2,2-d2-ethoxy) quinazolin-4-amine]	83.5	44
